Data published in patent US12180187B2, “1-phenyl-5-azinylpyrazolyl-3-oxyalkyl acids and their use for controlling unwanted plant growth” (BAYER AKTIENGESELLSCHAFT, priority 2019, dated 2024).

Experiments:
ALOMY [1] = experiment: Pre-emergence action at 320 g/ha against ALOMY; assay type: in vivo, Alopecurus myosuroides; conditions: scored visually after about 3 weeks vs untreated controls (100% = plants have died)
Outline: (§1)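 Percent herbicidal activity was assessed by eye roughly three weeks post-application, comparing with untreated plants. Treatment consisted of applying formulated compound in water plus 0.5% additive to covering soil at 600 l/ha before emergence.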

AVEFA = experiment: Pre-emergence action at 320 g/ha against AVEFA; assay type: in vivo; conditions: visual scoring after about 3 weeks vs untreated controls
Source text: (§2) b) Seeds of monocotyledonous and dicotyledonous weed plants and crop plants are placed in plastic or organic planting pots and covered with soil. The compounds of the invention, formulated in the form of wettable powders (WP) or as emulsion concentrates (EC), are then applied onto the surface of the covering soil as aqueous suspension or emulsion with addition of 0.5% additive at a water application rate of 600 l/ha (converted). After the treatment, the pots are placed in a greenhouse and kept under good growth conditions for the trial plants. After about 3 weeks, the effect of the preparations is scored visually in comparison with untreated controls as percentages. For example, 100% activity=the plants have died, 0% activity=like control plants. Tables 13 to 26 below show the effects of selected compounds of the general formula (I) on various harmful plants and at an application rate corresponding to 320 g/ha, which were obtained by the experimental procedure mentioned above.

ECHGC = experiment: Pre-emergence action at 320 g/ha against ECHGC; assay type: in vivo, Echinochloa crus-galli; conditions: visual scoring after about 3 weeks vs untreated controls
Source text: as §2

LOLRI [2] = experiment: Pre-emergence action at 320 g/ha against LOLRI; assay type: in vivo, Lolium rigidum; conditions: visual scoring after about 3 weeks vs untreated controls
Source text: as §2

SETVI [3] = experiment: Pre-emergence action at 320 g/ha against SETVI; assay type: in vivo, Setaria viridis; conditions: visual scoring after about 3 weeks vs untreated controls
Source text: as §2

AMARE [4] = experiment: Pre-emergence action at 320 g/ha against AMARE; assay type: in vivo, Amaranthus retroflexus; conditions: visual scoring after about 3 weeks vs untreated controls
Outline: as §1

MATIN [5] = experiment: Pre-emergence action at 320 g/ha against MATIN; assay type: in vivo, Tripleurospermum inodorum (Matricaria inodora); conditions: visual scoring after about 3 weeks vs untreated controls
Source text: as §2

POLCO = experiment: Pre-emergence action at 320 g/ha against POLCO; assay type: in vivo, Fallopia convolvulus (Polygonum convolvulus); conditions: visual scoring after about 3 weeks vs untreated controls
Outline: as §1

VERPE [6] = experiment: Pre-emergence action at 320 g/ha against VERPE; assay type: in vivo, Veronica persica; conditions: visual scoring after about 3 weeks vs untreated controls
Source text: as §2

VIOTR = experiment: Pre-emergence action at 320 g/ha against VIOTR; assay type: in vivo, Viola tricolor; conditions: dosage 320 g/ha
Outline: as §1

ALOMY [7] = experiment: Pre-emergence action against ALOMY, 1280 g/ha; assay type: in vivo, Alopecurus myosuroides; conditions: visual scoring after about 3 weeks vs untreated controls, 100% = plants have died, 0% = like control plants
Outline: (§3)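 Compound applied as WP or EC in aqueous spray (0.5% additive, 600 L/ha) to the surface of sandy loam covering freshly sown seeds. After about 3 weeks under good greenhouse conditions, damage is given as visual percentage, 100% meaning plant death.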

DIGSA [8] = experiment: Pre-emergence action against DIGSA, 1280 g/ha; assay type: in vivo, Digitaria sanguinalis; conditions: visual scoring after about 3 weeks vs untreated controls, 100% = plants have died, 0% = like control plants
Outline: as §3

ECHCG = experiment: Pre-emergence action against ECHCG, 1280 g/ha; assay type: in vivo, Echinochloa crus-galli; conditions: visual scoring after about 3 weeks vs untreated controls, 100% = plants have died, 0% = like control plants
Outline: as §3

LOLRI [9] = experiment: Pre-emergence action against LOLRI, 1280 g/ha; assay type: in vivo, Lolium rigidum; conditions: visual scoring after about 3 weeks vs untreated controls, 100% = plants have died, 0% = like control plants
Outline: as §3

POAAN [10] = experiment: Pre-emergence action against POAAN, 1280 g/ha; assay type: in vivo, Poa annua; conditions: visual scoring after about 3 weeks vs untreated controls, 100% = plants have died, 0% = like control plants
Outline: as §3

SETVI [11] = experiment: Pre-emergence action against SETVI, 1280 g/ha; assay type: in vivo, Setaria viridis; conditions: visual scoring after about 3 weeks vs untreated controls, 100% = plants have died, 0% = like control plants
Outline: as §3

AMARE [12] = experiment: Pre-emergence action against AMARE, 1280 g/ha; assay type: in vivo, Amaranthus retroflexus; conditions: scored visually after about 3 weeks vs untreated controls (100% = plants have died)
Outline: as §3

MATIN [13] = experiment: Pre-emergence action against MATIN, 1280 g/ha; assay type: in vivo, Tripleurospermum inodorum (Matricaria inodora); conditions: scored visually after about 3 weeks vs untreated controls (100% = plants have died)
Outline: as §3

STEME = experiment: Pre-emergence action against STEME, 1280 g/ha; assay type: in vivo, Stellaria media; conditions: scored visually after about 3 weeks vs untreated controls (100% = plants have died)
Outline: as §3

VERPE [14] = experiment: Pre-emergence action against VERPE, 1280 g/ha; assay type: in vivo, Veronica persica; conditions: scored visually after about 3 weeks vs untreated controls (100% = plants have died)
Outline: as §3

ALOMY [15] = experiment: Post-emergence action against ALOMY, 1.28 kg/ha; assay type: in vivo, Alopecurus myosuroides; conditions: dosage 1280 g/ha, visual rating about 3 weeks after treatment vs untreated controls
Outline: (§4)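 Greenhouse pot test, sandy loam; weeds sprayed post-emergence at one-leaf stage (2–3 weeks after sowing) with WP or EC formulation plus 0.5% additive, 600 l/ha water. Visual rating after about 3 weeks versus untreated controls, 100% = plants dead, 0% = like control.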

POAAN [16] = experiment: Post-emergence action against POAAN, 1.28 kg/ha; assay type: in vivo, Poa annua; conditions: dosage 1280 g/ha, visual rating about 3 weeks after treatment vs untreated controls
Outline: as §4

KCHSC = experiment: Post-emergence action against KCHSC, 1.28 kg/ha; assay type: in vivo, Bassia scoparia; conditions: dosage 1280 g/ha, visual rating about 3 weeks after treatment vs untreated controls (100% = plants died)
Description: • a) Seeds of mono- and dicotyledonous weed plants are placed in plastic pots in sandy loam soil (twin sowing with one species each of mono- or dicotyledonous weed plants per pot), covered with soil and cultivated in a greenhouse under controlled growth conditions. 2 to 3 weeks after sowing, the test plants are treated at the one-leaf stage. The compounds of the invention, formulated in the form of wettable powders (WP) or as emulsion concentrates (EC), are applied to the green parts of the plants as aqueous suspension or emulsion with addition of 0.5% additive at a water application rate equivalent to 600 litres per hectare. After the test plants have been kept in the greenhouse under optimum growth conditions for about 3 weeks, the activity of the preparations is rated visually in comparison to untreated controls. For example, 100% activity=the plants have died, 0% activity=like control plants. As shown by the results, compounds of the general formula (I) of the invention, in post-emergence treatment, have very good herbicidal efficacy (90% to 100% herbicidal action) against harmful plants such as Abutilon theophrasti, Digitaria sanguinalis, Echinochloa crus-galli, Matricaria inodora, Poa annua, at an application rate of 1.28 kg of active substance per hectare.

MATIN [17] = experiment: Post-emergence action against MATIN, 1.28 kg/ha; assay type: in vivo, Tripleurospermum inodorum (Matricaria inodora); conditions: dosage 1280 g/ha, visual rating about 3 weeks after treatment vs untreated controls (100% = plants died)
Outline: as §4

VERPE [18] = experiment: Post-emergence action against VERPE, 1.28 kg/ha; assay type: in vivo, Veronica persica; conditions: dosage 1280 g/ha, visual rating about 3 weeks after treatment vs untreated controls (100% = plants died)
Outline: as §4

DIGSA [19] = experiment: Pre-emergence action at 320 g/ha against DIGSA; assay type: in vivo, Digitaria sanguinalis; conditions: visual scoring after about 3 weeks vs untreated controls
Source text: as §2

Structure (SMILES)	Pre-emergence action at 320 g/ha against ALOMY in % (ALOMY [1]) [%]	Pre-emergence action against AVEFA in % (AVEFA) [%]	Pre-emergence action against ECHGC in % (ECHGC) [%]	Pre-emergence action against LOLRI in % (LOLRI [2]) [%]	Pre-emergence action against SETVI in % (SETVI [3]) [%]	Pre-emergence action against AMARE in % (AMARE [4]) [%]	Pre-emergence action against MATIN in % (MATIN [5]) [%]	Pre-emergence action against POLCO in % (POLCO) [%]	Pre-emergence action against VERPE in % (VERPE [6]) [%]	Pre-emergence action against VIOTR in % (VIOTR) [%]	other results
COC(=O)C1CCCN1C(=O)COc1nn(-c2ccccc2F)c(-c2ccc(F)nc2)c1Br (stereo not drawn) [Example X-016]	100	90	90	90	100	100	90	80	100	100	–
N#CCCNC(=O)COc1nn(-c2ccccc2F)c(-c2ccc(F)nc2)c1Br [Example X-032]	–	–	–	–	–	–	–	–	–	–	Pre-emergence action against ALOMY (ALOMY [7]): 100%; Pre-emergence action against DIGSA (DIGSA [8]): 100%; Pre-emergence action against ECHCG (ECHCG): 100%; Pre-emergence action against LOLRI (LOLRI [9]): 100%; Pre-emergence action against POAAN (POAAN [10]): 100%; Pre-emergence action against SETVI (SETVI [11]): 100%; Pre-emergence action against AMARE (AMARE [12]): 100%; Pre-emergence action against MATIN (MATIN [13]): 100%; Pre-emergence action against STEME (STEME): 100%; Pre-emergence action against VERPE (VERPE [14]): 100%; Post-emergence action against ALOMY (ALOMY [15]): 100%; Post-emergence action against POAAN (POAAN [16]): 100%; Post-emergence action against KCHSC (KCHSC): 90%; Post-emergence action against MATIN (MATIN [17]): 90%; Post-emergence action against VERPE (VERPE [18]): 100%
COC(=O)[C@@H](C)Oc1nn(-c2ccccc2)c(-c2cccnc2)c1Cl [VII-041]	90	80	80	90	–	100	100	–	100	80	–
O=C(O)C(F)Oc1nn(-c2ccccc2F)c(-c2ccc(F)nc2)c1Br (stereo not drawn) [VII-057-a]	–	80	80	90	100	100	90	80	–	100	Pre-emergence action against DIGSA in % (DIGSA [19]): 100%
